From patent EP1849784A1, “Indoline-substituted pyrazoline compounds, their preparation and use as medicaments” (LABORATORIOS DEL DR. ESTEVE, S.A., priority 2006, dated 2007)

Assays:
[1] = system: cannabinoid receptors; test: Mouse tetrad model, antagonistic effect against Win 55212-2; assay type: in vivo, Male NMRI mice; conditions: for Antagonistic Effect in (%): against Win 55212-2 (1.25 mg/kg intravenous), substance injected 5 minutes before, tetrad parameter not specified; for Antagonism (%): summary table 1
Source text: Substances with affinity for cannabinoid receptors are known to produce a wide range of pharmacological effects. It is also known that intravenous administration of a substance with affinity for cannabinoid receptors in mice produces analgesia , hypothermia, sedation and catalepsy. Individually, none of these effects can be considered as proof that a tested substance has affinity for cannabinoid-receptors, since all of these effects are common for various classes of centrally active agents. However, substances, which show all of these effects, i.e. substances that are active in this so-called tetrad model are considered to have affinity for the cannabinoid receptors. It has further been shown that cannabinoid receptor antagonists are higly effective in blocking the effects of a cannabinoid agonist in the mouse tetrad model.
The tetrad model is described, for example, in the publication of A. C. Howlett et al, International Union of Pharmacology XXVII. Classification of Cannabinoid Receptors, Pharmacol Rev 54,161-202, 2002 and David R. Compton et al., "In-vivo Characterization of a Specific Cannabinoid Receptor Antagonist (SR141716A) :Inhibition of Tetrahydrocannbinol- induced Responses and Apparent Agonist Activity", J. Pharmacol. Exp. Ther. 277 , 2, 586-594, 1996. The corresponding parts of the description are hereby incorporated by reference.
Male NMRI mice with a weight of 20-30 g (Harlan, Barcelona, Spain) are used in all of the following experiments.
Before testing in the behavioral procedures given below, mice are acclimatized to the experimental setting. Pre-Treatment control values are determined for analgesia hot plate latency (in seconds), rectal temperature, sedation and catalepsy.
In order to determine the agonistic activty of the substance to be tested, the mice are injected intravenously with the substance to be tested or the vehicle alone. 15 minutes after injection, latency in hot plate analgesia is measured. Rectal temperature, sedation and catalepsy are measured 20 minutes after injection.
In order to determine the antagonistic activity the identical procedure is used as for the determination of the agonistic effects, but with the difference that the substance to be evaluated for its antagonistic activity is injectected 5 minutes before the intravenous injection of 1.25 mg/kg Win-55,212 a known cannabinoid-receptor agonist.
The hot plate analgesia is determined according to the method described in Woolfe D. et al. "The evaluation of analgesic action of pethidine hydrochloride (Demerol)", J. Pharmacol. Exp. Ther. 80, 300-307,1944. The respective description is hereby incorporated by reference and forms part of the present disclosure.
The mice are placed on a hot plate (Harvard Analgesimeter) at 55 ± 0.5 °C until they show a painful sensation by licking their paws or jumping and the time for these sensations to occur is recorded. This reading is considered the basal value (B). The maximum time limit the mice are allowed to remain on the hot plate in absence of any painful response is 40 seconds in order to prevent skin damage. This period is called the cut-off time (PC).
Fifteen minuts after the administration of the substance to be tested, the mice are again placed on the hot plate and the afore described procedure is repeated. This period is called the post-treatment reading (PT).
The degree of analgesia is calculated from the formula: % MPE of Analgesia = (PT-B)/(PC-B) × 100 [formula] MPE = Maximum possible effect.
Sedation and ataxia is determined according to the method described in Desmet L. K. C. et al. "Anticonvulsive properties of Cinarizine and Flunarizine in Rats and Mice", Arzneim. -Forsch. (Frug Res) 25, 9, 1975. The respective description is hereby incorporated by reference and forms part of the present disclosure.
The chosen scoring system is • 0: no ataxia; • 1: doubful; • 2: obvious calmness and quiet; • 3 pronounced ataxia; prior to as well as after treatment. […]

[2] = biological target: T1, CB1-Receptor (Homo sapiens, UniProt P21554); test: In-vitro determination of affinity to CB1-Receptor (radioligand binding); conditions: transfected human CB1 receptors; radioligand [^3H]-CP55940; read-out: CB1-Receptor Radiologand:[^3H]-CP55940 IC50
T1 construct: purchased Receptor Biology, Inc
Experimental: The in-vitro determination of the affinity of the inventive quaternary ammonium salts of substituted pyrazoline compounds to CB1/CB2Rezeptors is carried out as described in the publication of Ruth A. Ross, Heather C. Brockie et al., "Agonist-inverse agonist characterization at CB1 and CB2 cannabinoid receptors of L-759633, L759656 and AM630", British Journal of Pharmacology, 126, 665-672, (1999), whereby the transfected human CB1 and CB2 receptors of Receptor Biology, Inc. are used. The radioligand used for both receptors is [^3H]-CP55940. The respective parts of the description are hereby incorporated by reference and forms part of the present disclosure.

T1 sequence (P21554 whole entry): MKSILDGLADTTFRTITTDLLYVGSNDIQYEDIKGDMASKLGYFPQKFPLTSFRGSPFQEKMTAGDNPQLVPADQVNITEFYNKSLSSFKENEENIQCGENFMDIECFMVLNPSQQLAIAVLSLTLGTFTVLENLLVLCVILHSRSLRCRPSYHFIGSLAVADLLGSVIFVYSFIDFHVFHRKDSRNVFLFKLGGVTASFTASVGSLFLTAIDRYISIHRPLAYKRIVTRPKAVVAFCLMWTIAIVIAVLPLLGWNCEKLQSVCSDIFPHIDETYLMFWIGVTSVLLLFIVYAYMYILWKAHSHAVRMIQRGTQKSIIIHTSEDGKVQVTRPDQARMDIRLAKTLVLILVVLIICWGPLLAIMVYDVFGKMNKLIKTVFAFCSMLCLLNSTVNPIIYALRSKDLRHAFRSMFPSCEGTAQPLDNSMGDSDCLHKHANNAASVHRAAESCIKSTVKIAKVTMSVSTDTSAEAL

Antagonistic Effect in (%) [1] [%]	Antagonism (%) [1] [%]	IC50 [2] [nM]	SMILES
33	33	–	CC1Cc2ccccc2N1NC(=O)C1=NN(c2ccc(Cl)cc2Cl)C(c2ccc(Cl)cc2)C1 (stereo not shown) [Example 1, 5-(4-chlorophenyl)-1-(2,4-dichlorophenyl)-N-(2-methylindolin-1-yl)-4,5-dihydro-1H-pyrazole-3-carboxamide]
65±15	65 ± 15	100	O=C(NN1CCc2ccccc21)C1=NN(c2ccc(Cl)cc2Cl)C(c2ccc(Cl)cc2)C1 (stereo not shown) [Example 2, 5-(4-chlorophenyl)-1-(2,4-dichlorophenyl)-N-(indolin-1-yl)-4,5-dihydro-1H-pyrazole-3-carboxamide]

SMILES	Antagonistic Effect in (%) [1] [%]	Antagonism (%) [1] [%]	IC50 [2] [nM]
O=C(NN1CCc2ccccc21)C1=NN(c2ccc(Cl)cc2Cl)C(c2ccc(Br)cc2)C1 (stereo not shown) [Example 6, 5-(4-bromophenyl)-1-(2,4-dichlorophenyl)-N-(indolin-1-yl)-4,5-dihydro-1H-pyrazole-3-carboxamide]	88 ± 10	88 ± 10	–
